Laboratory results taken from US10562914B2, “Imidazoles as histone demethylase inhibitors” (Istituto Europeo di Oncologia S.r.l., priority 2016, dated 2020).
Structures can show the parent of a compound that is named as a salt.

Columns and labels:
human leukemia NB4 cells = test: Cell growth, CellTiter-Fluor viability assay, NB4; format: cell-based; conditions: NB-4, 48 h incubation, read-out: IC50 against human leukemia NB4 cells
Source text: (§1) CellTiter-Flor® (Promega) is as a nonlytic, single-reagent-addition fluorescence assay that measures the relative number of living cells in a culture population after experimental manipulation. The CellTiter-Fluor™ Cell Viability Assay measures the conserved and constitutive protease activity within live cells and therefore acts as a marker for cell viability.
(§2) Human leukemia MV4-11 cells, (obtained from the Deutsche Sammlung von Mikroorganismen und Zellkulturen, ACC 102) or NB4 cells, (obtained from the Deutsche Sammlung von Mikroorganismen und Zellkulturen) in exponential growth, were incubated for 48 h with different concentrations of the inhibitors. After 48 h a volume of CellTiter-Fluor® Reagent equal to one fifth of volume of cell culture medium was added. The content was mixed and incubates for at least 90 min at 37° C. degree to obtain a stable signal. The fluorescence was recorded using an excitation wavelength of 360 nm and an emission at 535 nm. The IC50 was calculated using GraphPad Software.

[1] = biological target: T1, human recombinant KDM1A/CoREST protein (Homo sapiens, UniProt O60341); test: Assay of enzyme inhibition of KDM1A (LSD1), TR-FRET; format: biochemical; conditions: 0.25 nM KDM1A/CoREST, 50 nM H3K4 monomethylated peptide, 20 min at RT
T1 construct: made in house; host or cells: E. coli
Description: 2.1 Assay of Enzyme Inhibition of KDM1A (LSD1)
The intensity of the light emission is proportional to the level of biotinylated reaction product. The complex of human recombinant KDM1A/CoREST protein was produced in E. coli as separate proteins and co-purified as previously described.
Demethylase reaction was started by the addition of 50 nM histone H3K4 monomethylated.
The resulting mixture was incubated in the dark for 1 h at RT. Then, TR-FRET signal was read by a fluorimeter (Infinite® F200, Tecan, Männedorf, Swirzerland) (Excitation 320 nm, Emission 665 nm and 620 nm, delay time 50 μs, window time 100 μs).
The inhibitor concentrations ranged from 0.025 to 500 μM (serial 1:3 dilutions). The IC50 was calculated using GraphPad Software.

[2] = system: Human leukemia MV4-11 cells; test: Cell growth, CellTiter-Fluor viability assay, MV4-11; format: cell-based; conditions: 48 h incubation, read-out: IC50 against human leukemia MV4-11 cells
Source text: as §1, §2

SMILES | IC50 (human leukemia NB4 cells) [µM] | IC50 [1] [nM] | IC50 [2] [µM]
CCc1cnc(-c2cc3sccc3n2C)n1CCOc1cccc(OC2CCNCC2)c1 [Example 19, 5-[5-ethyl-1-[2-[3-(4-piperidyloxy)phenoxy]ethyl]imidazol-2-yl]-4-methyl-thieno[3,2-b]pyrrole] | < 20 | < 100 | < 10
CCc1cn(CCOc2cccc(OC3CCNCC3)c2)c(-c2cc3sccc3n2C)n1 [Example 18, 5-[4-ethyl-1-[2-[3-(4-piperidyloxy)phenoxy]ethyl]imidazol-2-yl]-4-methyl-thieno[3,2-b]pyrrole hydrochloride] | < 20 | < 100 | < 10
CCc1cnc(-c2cc3sccc3n2C)n1CCOc1ccc(OCC2CCNCC2)cc1 [Example 24, 5-[5-ethyl-1-[2-[4-(4-piperidylmethoxy)phenoxy]ethyl]imidazol-2-yl]-4-methyl-thieno[3,2-b]pyrrole trifluoroacetate] | < 20 | < 100 | < 10
CCc1c(-c2ccccc2)nc(-c2cc3sccc3n2C)n1CCOc1cccc(OC2CCNCC2)c1 [Example 32, 5-[5-ethyl-4-phenyl-1-[2-[3-(4-piperidyloxy)phenoxy]ethyl]imidazol-2-yl]-4-methyl-thieno[3,2-b]pyrrole] | < 20 | < 100 | < 10
CCc1c(-c2ccccc2)nc(-c2cc3sccc3n2C)n1CCOc1ccc(OC2CCNCC2)cc1 [Example 31, 5-[5-ethyl-4-phenyl-1-[2-[4-(4-piperidyloxy)phenoxy]ethyl]imidazol-2-yl]-4-methyl-thieno[3,2-b]pyrrole] | < 20 | < 100 | < 10
CCc1cnc(-c2cc3sccc3n2C)n1CCOc1ccc(OC2CCNCC2)cc1 [Example 21, 5-[5-ethyl-1-[2-[4-(4-piperidyloxy)phenoxy]ethyl]imidazol-2-yl]-4-methyl-thieno[3,2-b]pyrrole] | < 20 | < 100 | < 10
CCc1cnc(-c2cc3sccc3n2C)n1CCOc1ccc(OC2CCCNCC2)cc1 (stereo not drawn) [Example 26, 5-[1-[2-[4-(azepan-4-yloxy)phenoxy]ethyl]-5-ethyl-imidazol-2-yl]-4-methyl-thieno[3,2-b]pyrrole trifluoroacetate] | < 20 | < 100 | < 10

Next, values leading:

IC50 (human leukemia NB4 cells) [µM] | IC50 [1] [nM] | IC50 [2] [µM] | SMILES
< 20 | < 100 | < 10 | CCc1nc(-c2cc3sccc3n2C)n(CCOc2cccc(OC3CCNCC3)c2)c1-c1ccccc1 [Example 33, 5-[4-ethyl-5-phenyl-1-[2-[3-(4-piperidyloxy)phenoxy]ethyl]imidazol-2-yl]-4-methyl-thieno[3,2-b]pyrrole]
< 20 | < 100 | < 10 | Cn1c(-c2ncc(C3CCC3)n2CCOc2ccc(OC3CCNCC3)cc2)cc2sccc21 [Example 30, 5-[5-cyclobutyl-1-[2-[4-(4-piperidyloxy)phenoxy]ethyl]imidazol-2-yl]-4-methyl-thieno[3,2-b]pyrrole hydrochloride]
< 20 | < 100 | < 10 | CCc1cn(CCOc2ccc(OCC3CCNCC3)cc2)c(-c2cc3sccc3n2C)n1 [Example 23, 5-[4-ethyl-1-[2-[4-(4-piperidylmethoxy)phenoxy]ethyl]imidazol-2-yl]-4-methyl-thieno[3,2-b]pyrrole hydrochloride]
< 20 | < 100 | < 10 | CCc1cnc(-c2cc3sccc3n2C)n1CCCc1ccc(OC2CCNCC2)cc1 [Example 28, 5-[5-ethyl-1-[3-[4-(4-piperidyloxy)phenyl]propyl]imidazol-2-yl]-4-methyl-thieno[3,2-b]pyrrole hydrochloride]
